Assay results reported in ChEMBL document CHEMBL2057096, “Discovery of novel 1,2,4-thiadiazole derivatives as potent, orally active agonists of sphingosine 1-phosphate receptor subtype 1 (S1P(1))” (J Med Chem, 2012).
In brackets after ≈: the same amount, converted by molar mass. Activity calls are given as the source filed them. The calls are words filed in the database; no cut-off is given here.

Tests used:
[1] = target: Sphingosine 1-phosphate receptor 1 (Homo sapiens, UniProt P21453); experiment: Agonist activity against S1P1 receptor by cell based FRET assay; assay type: functional
[2] = target: Sphingosine 1-phosphate receptor 3 (Homo sapiens, UniProt Q99500); experiment: Agonist activity against S1P3 receptor by cell based FRET assay; assay type: functional
Homo sapiens = species on record: Homo sapiens; experiment: Selectivity ratio of EC50 for S1P3 receptor to EC50 for S1P1 receptor
[3] = Percentage unbound in human plasma; assay type: ADME, cell-free
[4] = Half life in mouse; assay type: ADME, organism-based; details: in vivo
[5] = AUC (0 to 24 hrs) in mouse; assay type: ADME, organism-based; design: time < 24 hr; details: plasma
Mus musculus [6] = experiment: Antiinflammatory activity in C57BL/6 mouse EAE model assessed as decrease in clinical symptoms at 1 mg/kg, po administered qd after 10 days post immunization; assay type: functional, organism-based; design: dose 1 mg/kg
Mus musculus [7] = experiment: Decrease in lymphocyte count in mouse acute lymphopenia model at 1 mg/kg, po after 24 hrs by flow cytometry relative to base line; assay type: functional; design: scale not given: the % may be the effect or the level left
[8] = Oral bioavailability in mouse; assay type: ADME, organism-based; details: in vivo
Mus musculus [9] = experiment: Decrease in lymphocyte count in mouse acute lymphopenia model at 1 mg/kg, po after 4 hrs by flow cytometry relative to base line; assay type: functional; design: scale not given: the % may be the effect or the level left
[10] = Permeability of the compound; assay type: ADME; details: not told; read-out: permeability
[11] = Ratio of drug level in brain to blood in C57BL/6 mouse at 2 mg/kg, ip after 4 hrs; assay type: ADME, organism-based; design: dose 2 mg/kg, route intraperitoneal
[12] = Ratio of drug level in brain to blood in C57BL/6 mouse at 2 mg/kg, ip after 1 hr; assay type: ADME, organism-based; design: dose 2 mg/kg, route intraperitoneal
Cytochrome P450 2D6 = Cytochrome P450 2D6 (Homo sapiens, UniProt P10635); experiment: Inhibition of CYP2D6; assay type: ADME
[13] = Solubility of the compound; assay type: physicochemical
Cytochrome P450 2C9 = Cytochrome P450 2C9 (Homo sapiens, UniProt P11712); experiment: Inhibition of CYP2C9; assay type: ADME
[14] = Percentage unbound in rat plasma; assay type: ADME, cell-free

Sequence of Sphingosine 1-phosphate receptor 1 (P21453 whole entry): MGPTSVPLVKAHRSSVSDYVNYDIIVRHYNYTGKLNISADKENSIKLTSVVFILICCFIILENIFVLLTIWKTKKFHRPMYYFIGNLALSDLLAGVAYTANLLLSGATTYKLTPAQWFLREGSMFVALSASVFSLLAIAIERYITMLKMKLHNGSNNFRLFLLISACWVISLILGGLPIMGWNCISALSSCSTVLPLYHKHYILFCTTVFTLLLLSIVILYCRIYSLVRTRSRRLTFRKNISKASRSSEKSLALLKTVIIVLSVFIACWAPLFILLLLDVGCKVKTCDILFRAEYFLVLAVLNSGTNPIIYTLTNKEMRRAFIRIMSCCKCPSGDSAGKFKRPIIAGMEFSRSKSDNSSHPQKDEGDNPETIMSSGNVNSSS
Sequence of Cytochrome P450 2C9 (P11712 whole entry): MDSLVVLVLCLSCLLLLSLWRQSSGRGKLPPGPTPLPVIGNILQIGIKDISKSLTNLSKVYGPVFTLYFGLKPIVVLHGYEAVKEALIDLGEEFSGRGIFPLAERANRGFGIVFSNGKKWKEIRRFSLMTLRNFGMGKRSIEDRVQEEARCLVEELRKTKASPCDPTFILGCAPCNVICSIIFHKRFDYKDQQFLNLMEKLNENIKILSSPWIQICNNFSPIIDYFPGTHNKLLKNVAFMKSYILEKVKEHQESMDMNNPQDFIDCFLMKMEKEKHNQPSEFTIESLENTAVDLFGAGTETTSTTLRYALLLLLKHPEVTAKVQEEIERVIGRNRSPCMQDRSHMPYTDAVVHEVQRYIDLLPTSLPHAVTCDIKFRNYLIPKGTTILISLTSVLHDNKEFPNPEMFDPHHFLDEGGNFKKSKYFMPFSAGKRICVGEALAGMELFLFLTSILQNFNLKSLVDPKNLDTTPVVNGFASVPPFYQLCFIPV
Sequence of Sphingosine 1-phosphate receptor 3 (Q99500 whole entry): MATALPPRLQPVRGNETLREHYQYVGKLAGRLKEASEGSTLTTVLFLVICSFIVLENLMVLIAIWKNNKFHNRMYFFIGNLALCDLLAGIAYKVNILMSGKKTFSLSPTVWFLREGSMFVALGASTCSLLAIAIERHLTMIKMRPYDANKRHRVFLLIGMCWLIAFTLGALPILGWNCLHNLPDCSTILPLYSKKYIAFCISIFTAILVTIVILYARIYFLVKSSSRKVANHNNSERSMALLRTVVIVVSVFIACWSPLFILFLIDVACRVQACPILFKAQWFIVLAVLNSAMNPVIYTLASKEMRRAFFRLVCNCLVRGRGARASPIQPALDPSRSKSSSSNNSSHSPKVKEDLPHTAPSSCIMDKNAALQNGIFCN
Sequence of Cytochrome P450 2D6 (P10635 whole entry): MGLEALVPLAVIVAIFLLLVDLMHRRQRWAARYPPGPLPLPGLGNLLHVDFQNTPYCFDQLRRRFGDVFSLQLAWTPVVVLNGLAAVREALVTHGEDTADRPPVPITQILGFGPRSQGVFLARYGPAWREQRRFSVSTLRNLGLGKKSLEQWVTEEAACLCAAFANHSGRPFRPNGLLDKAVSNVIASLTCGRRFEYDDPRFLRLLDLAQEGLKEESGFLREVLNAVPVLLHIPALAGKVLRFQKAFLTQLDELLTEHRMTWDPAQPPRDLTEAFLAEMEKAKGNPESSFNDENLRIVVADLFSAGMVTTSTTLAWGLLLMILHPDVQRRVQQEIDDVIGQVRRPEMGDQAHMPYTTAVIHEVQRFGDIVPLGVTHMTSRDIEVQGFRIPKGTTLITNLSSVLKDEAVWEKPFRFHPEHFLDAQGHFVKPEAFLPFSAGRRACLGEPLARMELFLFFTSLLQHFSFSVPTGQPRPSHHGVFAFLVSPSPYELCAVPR

CCc1c(CN2CC(C(=O)O)C2)cccc1-c1nsc(-c2ccc(OC(C)C)c(C(F)(F)F)c2)n1
EC50 [1]: 0.251 nM
EC50 [2]: 2510 nM
Ratio EC50 (Homo sapiens): > 1000
fraction unbound [3]: 0.0026

CCc1c(CCCC(=O)O)cccc1-c1cnc(-c2ccc(OC(C)C)c(C#N)c2)nc1
EC50 [1]: 1 nM
half-life [4]: 8 h
AUC(0-t) at 24 h [5]: 11500 ng·h/mL
Activity (Mus musculus [6]): Active
Activity (Mus musculus [7]): 103.2%
bioavailability [8]: 78%
EC50 [2]: > 10000 nM
Activity (Mus musculus [9]): 34.9%
Papp [10]: 19 ×10⁻⁶ cm/s
fraction unbound [3]: 0.0019
Kp at 4 h [11]: 0.48
Kp at 1 h [12]: 0.47
IC50 (Cytochrome P450 2D6): 6310 nM
solubility [13]: 161 µg/mL (≈ 375 µM)

CCc1c(CCCC(=O)O)cccc1-c1ccnc(-c2ccc(OC(C)C)c(C#N)c2)n1
EC50 [1]: > 3160 nM

CCc1c(CCCC(=O)O)cccc1-c1ccc(-c2ccc(OC(C)C)c(C#N)c2)s1
EC50 [1]: 3.98 nM
IC50 (Cytochrome P450 2C9): 1580 nM
EC50 [2]: > 10000 nM
fraction unbound [14]: 0.0002
Papp [10]: 30 ×10⁻⁶ cm/s
Kp at 4 h [11]: 1.5
Kp at 1 h [12]: 1
solubility [13]: 115 µg/mL (≈ 265 µM)

CCc1c(CN(C)CC(=O)O)cccc1-c1nsc(-c2ccc(OC(C)C)c(C(F)(F)F)c2)n1
EC50 [1]: 10 nM
EC50 [2]: > 10000 nM
Ratio EC50 (Homo sapiens): > 1000
fraction unbound [3]: 0.0049

CCc1c(CCN2CCC(C(=O)O)CC2)cccc1-c1nsc(-c2ccc(OC(C)C)c(C(F)(F)F)c2)n1
EC50 [1]: 0.1 nM
EC50 [2]: 2510 nM
Ratio EC50 (Homo sapiens): > 1000
fraction unbound [3]: 0.0017

CCc1c(-c2nsc(-c3ccc(CC(C)C)c(C#N)c3)n2)ccnc1CCCC(=O)O
EC50 [1]: 158 nM
fraction unbound [3]: 0.0019

CCc1c(CCCC(=O)O)cccc1-c1cnc(-c2ccc(OC(C)C)c(C#N)c2)[nH]1
EC50 [1]: > 10000 nM

CCc1c(CCCC(=O)O)cccc1-c1nsc(-c2ccc(N3CCOCC3)c(C(F)(F)F)c2)n1
EC50 [1]: 126 nM
fraction unbound [14]: 0.0006

CCc1c(CCCC(=O)O)cncc1-c1nsc(-c2ccc(CC(C)C)c(C#N)c2)n1
EC50 [1]: 398 nM
fraction unbound [3]: 0.0014

CCc1c(CCCC(=O)O)cccc1-c1cc(-c2ccc(OC(C)C)c(C#N)c2)n[nH]1
EC50 [1]: > 10000 nM

CCc1c(CCNCC(=O)O)cccc1-c1nsc(-c2ccc(OC(C)C)c(C(F)(F)F)c2)n1
EC50 [1]: 0.0158 nM
EC50 [2]: > 3160 nM
Ratio EC50 (Homo sapiens): > 1000
fraction unbound [3]: 0.0013

CCc1c(CCCC(=O)O)cccc1-c1nsc(-c2ccc(OC(C)C)c(Cl)c2)n1
EC50 [1]: 3.98 nM
fraction unbound [3]: 0.0015

CCc1c(CCCC(=O)O)cccc1-c1cc(-c2ccc(OC(C)C)c(C#N)c2)ncn1
EC50 [1]: > 3160 nM

CCc1c(CCCC(=O)O)cccc1-c1nc(-c2ccc(OC(C)C)c(C#N)c2)ns1
EC50 [1]: 1.26 nM

CCc1c(CN2CCC(C(=O)O)CC2)cccc1-c1nsc(-c2ccc(OC(C)C)c(C(F)(F)F)c2)n1
EC50 [1]: 15.8 nM
EC50 [2]: > 10000 nM
fraction unbound [14]: 0.0038
Ratio EC50 (Homo sapiens): > 1000

CCc1c(CCCC(=O)O)cccc1-c1nsc(-c2ccc(OC(C)C)c(C#N)c2)n1
EC50 [1]: 2.51 nM
half-life [4]: 1.5 h
AUC(0-t) at 24 h [5]: 2600 ng·h/mL
Activity (Mus musculus [6]): Active
IC50 (Cytochrome P450 2C9): 5010 nM
Activity (Mus musculus [7]): 87.9%
bioavailability [8]: 87%
EC50 [2]: > 10000 nM
Activity (Mus musculus [9]): 22.7%
Papp [10]: 32 ×10⁻⁶ cm/s
fraction unbound [3]: 0.0021
Kp at 4 h [11]: 0.52
Kp at 1 h [12]: 0.36
solubility [13]: 160 µg/mL (≈ 367 µM)

CCc1c(CCN2CC(C(=O)O)C2)cccc1-c1nsc(-c2ccc(CC(C)C)c(C#N)c2)n1
EC50 [1]: 0.794 nM
EC50 [2]: 2510 nM
Ratio EC50 (Homo sapiens): > 1000
fraction unbound [3]: 0.0071

CCc1c(CCCC(=O)O)cccc1-c1nsc(-c2ccc(-c3ccccc3)c(C(F)(F)F)c2)n1
EC50 [1]: 5.01 nM

CCc1c(CCCC(=O)O)cccc1-c1nsc(-c2cnc(OC(C)C)c(C(F)(F)F)c2)n1
EC50 [1]: 5.01 nM
fraction unbound [3]: 0.00031

CCc1c(CCCC(=O)O)cccc1-c1ncc(-c2ccc(OC(C)C)c(C#N)c2)cn1
EC50 [1]: 25.1 nM

CCc1c(CCCC(=O)O)cccc1-c1ccc(-c2ccc(OC(C)C)c(C#N)c2)cn1
EC50 [1]: 31.6 nM

CCc1c(CCCC(=O)O)cccc1-c1ccn(-c2ccc(OC(C)C)c(C#N)c2)n1
EC50 [1]: 2510 nM

CCc1c(CCCC(=O)O)cccc1-c1ccc(-c2ccc(OC(C)C)c(C#N)c2)nc1
EC50 [1]: 31.6 nM

CCc1c(CCCC(=O)O)cccc1-c1nsc(-c2ccc(N3CCCCC3)c(C(F)(F)F)c2)n1
EC50 [1]: 2 nM
fraction unbound [3]: 1e-05

CCc1c(CCCC(=O)O)cncc1-c1nsc(-c2ccc(OC(C)C)c(C(F)(F)F)c2)n1
EC50 [1]: 25.1 nM
fraction unbound [3]: 0.0012

CCc1c(CN2CC(C(=O)O)C2)cccc1-c1nsc(-c2ccc(OC(C)C)c(Cl)c2)n1
EC50 [1]: 3.98 nM
EC50 [2]: > 3160 nM
Ratio EC50 (Homo sapiens): > 1000
fraction unbound [3]: 0.0096

CCc1c(CCCC(=O)O)cccc1-c1cnc(-c2ccc(OC(C)C)c(C#N)c2)s1
EC50 [1]: 3.16 nM
half-life [4]: 3.6 h
AUC(0-t) at 24 h [5]: 8340 ng·h/mL
Activity (Mus musculus [6]): inactive
IC50 (Cytochrome P450 2C9): 3980 nM
Activity (Mus musculus [7]): 62.6%
bioavailability [8]: 100%
EC50 [2]: > 10000 nM
Activity (Mus musculus [9]): 15.3%
Papp [10]: 22 ×10⁻⁶ cm/s
fraction unbound [3]: 0.001
Kp at 4 h [11]: 0.35
Kp at 1 h [12]: 0.38
solubility [13]: 125 µg/mL (≈ 288 µM)

CCc1c(CN2CC(C(=O)O)C2)cccc1-c1nsc(-c2ccc(CC(C)C)c(C#N)c2)n1
EC50 [1]: 7.94 nM
EC50 [2]: > 3160 nM
Ratio EC50 (Homo sapiens): > 1000
fraction unbound [3]: 0.0128

CCc1c(CCCC(=O)O)cccc1-c1nccc(-c2ccc(OC(C)C)c(C#N)c2)n1
EC50 [1]: > 3160 nM

CCc1c(CCCC(=O)O)cccc1-c1nsc(-c2ccc(CC(C)C)c(C#N)c2)n1
EC50 [1]: 1.26 nM
fraction unbound [3]: 0.0003

CCc1c(CCCC(=O)O)cccc1-c1nsc(-c2ccc(N3CCN(C)CC3)c(C(F)(F)F)c2)n1
EC50 [1]: > 3160 nM
fraction unbound [14]: 0.0032

CCc1c(CCCC(=O)O)cccc1-c1ccc(-c2ccc(OC(C)C)c(C#N)c2)nn1
EC50 [1]: 631 nM

CCc1c(CCN2CCCCC2)cccc1-c1nsc(-c2ccc(CC(C)C)c(C#N)c2)n1
EC50 [1]: 1580 nM
EC50 [2]: > 10000 nM
fraction unbound [3]: 0.00017

CCc1c(CCN(C)CC(=O)O)cccc1-c1nsc(-c2ccc(OC(C)C)c(C(F)(F)F)c2)n1
EC50 [1]: 0.02 nM
EC50 [2]: > 3160 nM
Ratio EC50 (Homo sapiens): > 1000
fraction unbound [3]: 0.0021

CCc1c(CCN2CC(C(=O)O)C2)cccc1-c1nsc(-c2ccc(OC(C)C)c(C(F)(F)F)c2)n1
EC50 [1]: 0.251 nM
EC50 [2]: 3160 nM
Ratio EC50 (Homo sapiens): > 1000
fraction unbound [3]: 0.0025

CCc1c(CCCC(=O)O)cccc1-c1ccc(-c2ccc(OC(C)C)c(C#N)c2)cc1
EC50 [1]: 1.58 nM
IC50 (Cytochrome P450 2C9): 3980 nM
EC50 [2]: > 10000 nM
fraction unbound [14]: 0.0001
Papp [10]: 31 ×10⁻⁶ cm/s
Kp at 4 h [11]: 0.95
Kp at 1 h [12]: 0.93
solubility [13]: 154 µg/mL (≈ 360 µM)

CCc1c(CN(C)C(C)(C)C(=O)O)cccc1-c1nsc(-c2ccc(OC(C)C)c(C(F)(F)F)c2)n1
EC50 [1]: 100 nM
EC50 [2]: > 10000 nM
Ratio EC50 (Homo sapiens): > 1000
fraction unbound [3]: 4e-05

CCCCCCCCc1ccc(CCC(N)(CO)CO)cc1
Activity (Mus musculus [6]): Active

CCc1c(CCCC(=O)O)cncc1-c1nsc(-c2ccc(OC(C)C)c(Cl)c2)n1
EC50 [1]: 251 nM
fraction unbound [3]: 0.0019

CCc1c(CCCC(=O)O)cccc1-c1cnn(-c2ccc(OC(C)C)c(C#N)c2)c1
EC50 [1]: 631 nM

CCc1c(CCCC(=O)O)cccc1-c1cccc(-c2ccc(OC(C)C)c(C#N)c2)n1
EC50 [1]: > 3160 nM

CCc1c(CCCC(=O)O)cccc1-c1nnc(-c2ccc(OC(C)C)c(C#N)c2)o1
EC50 [1]: 3.16 nM
IC50 (Cytochrome P450 2C9): 7940 nM
EC50 [2]: > 10000 nM
fraction unbound [14]: 0.0021
Papp [10]: 24 ×10⁻⁶ cm/s
Kp at 4 h [11]: 0.09
Kp at 1 h [12]: 0.11
solubility [13]: 187 µg/mL (≈ 446 µM)

CCc1c(CCN2CC(O)C2)cccc1-c1nsc(-c2ccc(CC(C)C)c(C#N)c2)n1
EC50 [1]: 200 nM
EC50 [2]: > 3160 nM
fraction unbound [3]: 0.00091

CCc1c(CCCC(=O)O)cccc1-c1cc(-c2ccc(OC(C)C)c(C#N)c2)no1
EC50 [1]: 5.01 nM

CCc1c(CCCC(=O)O)cccc1-c1nsc(-c2ccc(OC(C)C)c(C(F)(F)F)c2)n1
EC50 [1]: 2 nM
fraction unbound [3]: 0.00014

CCc1c(CCN2CC(C(=O)O)C2)cccc1-c1nsc(-c2ccc(OC(C)C)c(Cl)c2)n1
EC50 [1]: 0.251 nM
EC50 [2]: > 3160 nM
Ratio EC50 (Homo sapiens): > 1000
fraction unbound [3]: 0.0067
